This is an account of results in PubChem BioAssay (NCI).

SMILES strings stand for the structures.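 Briefly, cells in 96-well plates were exposed to five compound concentrations for 48 h, and endpoints were estimated by linear interpolation. At the GI50, growth is halved. TGI: total growth inhibition.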

Test systems include K-562 leukemia; OVCAR-4 ovarian; HCC-2998 colon; RXF 393 renal; U251 CNS; A549 NSCLC; 786-0 renal; OVCAR-5 ovarian; MALME-3M melanoma; T-47D breast; UACC-62 melanoma; MCF7 breast; BT-549 breast.
Holding throughout (assay): DTP human tumour cell line panel, 48 h

For the compound `COC(=O)[C@@H]1CN(C(C)=O)C(=O)N1C(=O)OCc1ccccc1`, the concentration for total growth inhibition (TGI) with K-562 leukemia, in the experiment on OVCAR-4 ovarian, in the experiment on HCC-2998 colon, in the experiment with RXF 393 renal, with U251 CNS and in the experiment on A549 NSCLC was more than 100 µM each time. For the same compound, the total growth inhibition concentration (TGI) in the experiment on 786-0 renal, with OVCAR-5 ovarian, in the experiment with MALME-3M melanoma and in the experiment on T-47D breast was more than 100 µM each time.

Turning to `CNC(=O)SCC(N)C(=O)O` (stereo unspecified), the TGI in the experiment on K-562 leukemia, with OVCAR-4 ovarian, with HCC-2998 colon, in the experiment with RXF 393 renal, in the experiment with UACC-62 melanoma and with U251 CNS was more than 100 µM each time. Besides, the TGI with A549 NSCLC, in the experiment with MCF7 breast, in the experiment on OVCAR-5 ovarian and in the experiment on MALME-3M melanoma was more than 100 µM each time.

As for `c1ccc(-n2nc3ccc4nonc4c3n2)cc1`, the TGI in the experiment on K-562 leukemia, in the experiment on OVCAR-4 ovarian, in the experiment on HCC-2998 colon, in the experiment on RXF 393 renal, in the experiment on UACC-62 melanoma and in the experiment on U251 CNS was more than 100 µM in each case. Besides, the TGI with A549 NSCLC, in the experiment on 786-0 renal, in the experiment on MCF7 breast, in the experiment with OVCAR-5 ovarian, in the experiment on MALME-3M melanoma and with T-47D breast was more than 100 µM in each case.

Regarding `C=C(C)[C@H]1C=C[C@@H](OC(=O)c2cccnc2)[C@@]23CO[C@@](C)([C@H](OC(=O)c4cccnc4)[C@@]4(OC(C)=O)C[C@H](C)[C@H](OCCC)[C@@H]4[C@H]2OC(C)=O)[C@H]13`, the TGI in the experiment on K-562 leukemia, in the experiment on OVCAR-4 ovarian, in the experiment with HCC-2998 colon, in the experiment with RXF 393 renal, in the experiment with UACC-62 melanoma and with U251 CNS was more than 15 µM throughout. For the same compound, the TGI in the experiment with BT-549 breast, with 786-0 renal, with MCF7 breast, with OVCAR-5 ovarian and with T-47D breast was more than 15 µM each time.

In the case of `NCCN1C(=O)CN=C(c2ccc(Cl)cc2)c2cc(Cl)ccc21`, the concentration for total growth inhibition (TGI) (commonly the concentration at which net growth stops) in the experiment with K-562 leukemia is 34.8 µM; with OVCAR-4 ovarian it was 32.1 µM; in the experiment on HCC-2998 colon, 31.8 µM; in the experiment with RXF 393 renal, 24.5 µM; with UACC-62 melanoma, 32.2 µM; with U251 CNS it was 31.5 µM. Further, the TGI in the experiment with BT-549 breast is 30.3 µM; in the experiment with A549 NSCLC, 32.2 µM; with 786-0 renal, 30.4 µM; in the experiment on OVCAR-5 ovarian, 30.9 µM; with MALME-3M melanoma, 29.7 µM; in the experiment on T-47D breast, 59.3 µM.

Take `COc1ccc(OCc2ccc3nc(-c4ccccc4)c(Cl)nc3c2)cc1`: the total growth inhibition concentration (TGI) in the experiment on K-562 leukemia was more than 100 µM; with OVCAR-4 ovarian, 95.4 µM; with HCC-2998 colon, more than 100 µM; in the experiment with U251 CNS it was 31.6 µM; with A549 NSCLC, more than 100 µM; in the experiment with 786-0 renal it was 32.6 µM. The TGI was more than 100 µM with MCF7 breast, more than 100 µM in the experiment on OVCAR-5 ovarian, 37.3 µM in the experiment with MALME-3M melanoma and more than 100 µM in the experiment with T-47D breast.

On to `COC(CC1(/C=C/O[Si](C(C)C)(C(C)C)C(C)C)C(=O)N(C)c2ccccc21)OC` (stereo unspecified), for which the TGI in the experiment with K-562 leukemia, with OVCAR-4 ovarian, in the experiment with HCC-2998 colon, in the experiment with RXF 393 renal, in the experiment with UACC-62 melanoma and in the experiment with U251 CNS was more than 100 µM throughout. In addition, the concentration for total growth inhibition (TGI) in the experiment on A549 NSCLC was more than 100 µM; in the experiment on 786-0 renal, 71.6 µM; in the experiment on MCF7 breast, more than 100 µM; with OVCAR-5 ovarian, more than 100 µM; in the experiment on T-47D breast, more than 100 µM.

As for `CC(=O)Nc1ccc2[nH]c(-c3cccc(Cl)c3)cc(=O)c2c1`, the GI50 (in general, the concentration that inhibits growth by half) with OVCAR-4 ovarian is more than 100 µM. For the same compound, the concentration for total growth inhibition (TGI) in the experiment with OVCAR-4 ovarian is more than 100 µM; in the experiment on HCC-2998 colon it was 63.5 µM; in the experiment with UACC-62 melanoma, 84.4 µM; in the experiment with U251 CNS it was 23.8 µM; with BT-549 breast, more than 100 µM; with A549 NSCLC, more than 100 µM. Besides, the total growth inhibition concentration (TGI) in the experiment with 786-0 renal, with MCF7 breast, in the experiment with OVCAR-5 ovarian and in the experiment with MALME-3M melanoma was more than 100 µM in each case.

In the case of `CCOC(=O)c1c(Cl)nc2ccccc2c1N=[N+]=[N-]`, the TGI in the experiment with K-562 leukemia was more than 100 µM; in the experiment on OVCAR-4 ovarian, 31.7 µM; in the experiment on HCC-2998 colon it was more than 100 µM; in the experiment with RXF 393 renal, more than 100 µM; with U251 CNS, 62.4 µM; with BT-549 breast, 30.7 µM. Moreover, the total growth inhibition concentration (TGI) in the experiment on A549 NSCLC was more than 100 µM; with OVCAR-5 ovarian it was 41.1 µM; in the experiment on MALME-3M melanoma, more than 100 µM; in the experiment on T-47D breast, 45.7 µM.

Turning to `C/C=C/C1=CC(=O)C(O)C1O` (stereo unspecified), the concentration for total growth inhibition (TGI) is 179 µM in the experiment with K-562 leukemia; 111 µM in the experiment with OVCAR-4 ovarian; 82.5 µM in the experiment with HCC-2998 colon; 44 µM in the experiment on RXF 393 renal; 88.6 µM in the experiment on UACC-62 melanoma; 129 µM in the experiment with U251 CNS. Moreover, the TGI came out at 107 µM with A549 NSCLC, 122 µM in the experiment on MCF7 breast, 130 µM with OVCAR-5 ovarian and 87.4 µM with MALME-3M melanoma.

`CCOC(=O)[C@@]12C3C=CC(CC3)[C@]1(C(=O)c1ccccc1)C(=O)C(=O)N2c1ccccc1` (stereo partly specified): the TGI in the experiment on K-562 leukemia, in the experiment with OVCAR-4 ovarian, in the experiment with HCC-2998 colon, in the experiment on RXF 393 renal, in the experiment with UACC-62 melanoma and with U251 CNS was more than 100 µM each time. Further, the TGI in the experiment on A549 NSCLC, in the experiment on 786-0 renal, with MCF7 breast, in the experiment on OVCAR-5 ovarian, in the experiment with MALME-3M melanoma and in the experiment with T-47D breast was more than 100 µM in each case.

Consider `O=P1(Oc2ccccc2)N(CCCl)CCN1c1ccccc1` (stereo unspecified), for which the TGI in the experiment on K-562 leukemia, with OVCAR-4 ovarian, in the experiment with HCC-2998 colon, with RXF 393 renal, in the experiment with UACC-62 melanoma and with U251 CNS was more than 100 µM each time. In addition, the TGI in the experiment on A549 NSCLC, in the experiment with 786-0 renal, in the experiment with MCF7 breast, with OVCAR-5 ovarian, in the experiment on MALME-3M melanoma and with T-47D breast was more than 100 µM in each case.
